According to article PMC5085761 (International Journal of Molecular Sciences, 2016):

Molecular target: T1, OATP1B3 (Homo sapiens, UniProt Q9NPD5)
T1 construct: host or cells: HEK293
T1 sequence (Q9NPD5 1-702): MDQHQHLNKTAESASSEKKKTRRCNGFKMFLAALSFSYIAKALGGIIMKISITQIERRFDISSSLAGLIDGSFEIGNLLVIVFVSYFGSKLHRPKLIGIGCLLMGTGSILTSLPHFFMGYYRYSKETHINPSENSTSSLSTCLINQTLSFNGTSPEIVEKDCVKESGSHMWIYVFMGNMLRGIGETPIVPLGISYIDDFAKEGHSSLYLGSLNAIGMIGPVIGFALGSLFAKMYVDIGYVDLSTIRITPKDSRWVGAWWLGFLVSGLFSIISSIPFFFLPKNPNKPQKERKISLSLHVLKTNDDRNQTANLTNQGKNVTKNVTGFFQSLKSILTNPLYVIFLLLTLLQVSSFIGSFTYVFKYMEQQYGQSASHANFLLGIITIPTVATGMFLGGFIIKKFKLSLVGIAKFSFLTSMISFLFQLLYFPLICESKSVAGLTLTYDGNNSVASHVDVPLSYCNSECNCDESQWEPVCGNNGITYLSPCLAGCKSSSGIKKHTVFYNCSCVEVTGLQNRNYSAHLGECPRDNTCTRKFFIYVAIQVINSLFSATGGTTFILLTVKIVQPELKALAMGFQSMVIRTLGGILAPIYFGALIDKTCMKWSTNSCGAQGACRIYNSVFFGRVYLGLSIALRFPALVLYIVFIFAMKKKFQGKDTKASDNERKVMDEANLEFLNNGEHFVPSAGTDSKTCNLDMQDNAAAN
Test: Inhibition of tracer uptake in OATP1B3-expressing cells
Type: in vitro ADME
Conditions: OATP1B3, tracer [3H]E2G 0.1 µM, 100 µM–10 mM fluciclovine
Procedure: For the SLC transporter experiments, Mock Flp-in-293 cells (Flp/mock), OAT1-expressing Flp-in-293 cells (Flp/OAT1), mock HEK293 cells (HEK/mock), and OATP1B3-expressing HEK293 cells (HEK/OATP1B3) were obtained from Kanazawa University (Ishikawa, Japan). Briefly, Flp-in-293 and HEK293 cells were transfected with the appropriate plasmid DNA and selected using antibiotics (hygromycin or G-418). All cell lines were cultured in DMEM (Life Technologies Japan) supplemented with 10% (v/v) fetal bovine serum (American Type Culture Collection) and antibiotics (100 U/mL penicillin and 100 μg/mL streptomycin (Life Technologies Japan) for mock cells, 0.2 mg/mL hygromycin for Flp/OAT1 cells, and 1.2 mg/mL G-418 (Roche Diagnostics K.K., Tokyo, Japan) for HEK/OATP1B3 cells) at 37 °C under an atmosphere containing 5% CO2. […]
The experiments were performed as described previously, with minor modifications. […] The cells were lysed in 0.3 mL of 0.1N NaOH at room temperature, after which the radioactivity of each aliquot was measured as described above. The protein concentration of the cell lysate was determined with a VersaMax microplate reader (Molecular Devices Japan K.K., Osaka, Japan) or SpectraMax i3x (Molecular Devices Japan K.K.; only for OATP1B1) using a BCA Protein Assay Kit (Thermo Fisher Scientific, Kanagawa, Japan). Tracer uptake was expressed as pmol/mg protein. […]

inhibition by fluciclovine at millimolar concentrations observed: not
SMILES: N[C@]1(C(=O)O)C[C@@H](F)C1 [fluciclovine]
